Assay results published in patent US20070117203A1, “Modulation of stem and progenitor cell growth by oscillatory fluid flow” (priority 2005, published 2007).

Test system: Marrow Stromal Cells (MSCs)
Test: Intracellular calcium response of MSCs to oscillatory fluid flow in the presence of calcium channel blockers
Conditions: control 67.1±11.2
Description: Calcium Imaging: Intracellular levels of Ca^2+ were quantified using a ratiometric imaging technique with the Ca^2+ sensitive dye Fura-2 Acetoxymethyl ester (Fura-2 AM). […] The ratio of the emission intensities F340/F380 is a quantitative measurement of intracellular calcium [Ca^2+]i.
Cells were cultured on UV transparent quartz slides for 3 days. Prior to exposure to OFF, cells were washed with PBS, incubated with 10 μM Fura-2 AM in A-MEM and 2% FBS for 30 min at 37° C., and then washed again with PBS. Following Fura-2 loading, the slides were mounted in a parallel plate flow chamber, and then fixed to the stage of a Nikon TE300 epi-fluorescent microscope (Technical Instruments SF, Burlingame, Calif.). The setup was left undisturbed for 30 min, during which the cells were perfused with media at 0.05 ml/min. Cells were then subjected to 3 minutes of OFF at 1 Hz with peak shear stress of 20 dynes/cm^2. […] Ratio images were recorded and analyzed using image analysis software (Metafluor; Universal Imaging, West Chester, Pa.). […]
Data analysis: Calcium imaging data was analyzed using the Rainflow cycle counting numerical procedure. This method identifies oscillations in the time history data and is used to quantify [Ca^2+]i responses from background noise. Calcium imaging data is expressed as the fraction of cells responding i SE and mean change in [Ca^2+]i±SE. […]

Row | Structure (SMILES) | percentage of cells that responded to OFF with a change in intracellular calcium (50 nM, empties intracellular calcium stores, significant decrease (p<0.05)) | percentage of cells that responded to OFF with a change in intracellular calcium (10 μM, stretch activated channel blocker, not different from control)
1 | C/C=C(/C)C(=O)O[C@H]1C(C)=C2[C@H]([C@@H]1OC(=O)CCCCCCC)[C@@](C)(OC(C)=O)C[C@H](OC(=O)CCC)[C@@]1(O)[C@H]2OC(=O)[C@@]1(C)O [Thapsigargin] | 0±0% | 
2 | [Cl][Gd]([Cl])[Cl] [gadolinium chloride] |  | 61.1±14.7%
